{
  "source": "patent US20260103453A1",
  "about": "“NOVEL PYRIMIDINE DERIVATIVE AS BRUTON'S TYROSINE KINASE INHIBITOR” (HANMI PHARM. CO., LTD., priority 2022, published 2026)",
  "target": "BTK enzyme (Homo sapiens, UniProt Q06187)",
  "sequence (Q06187 whole entry)": "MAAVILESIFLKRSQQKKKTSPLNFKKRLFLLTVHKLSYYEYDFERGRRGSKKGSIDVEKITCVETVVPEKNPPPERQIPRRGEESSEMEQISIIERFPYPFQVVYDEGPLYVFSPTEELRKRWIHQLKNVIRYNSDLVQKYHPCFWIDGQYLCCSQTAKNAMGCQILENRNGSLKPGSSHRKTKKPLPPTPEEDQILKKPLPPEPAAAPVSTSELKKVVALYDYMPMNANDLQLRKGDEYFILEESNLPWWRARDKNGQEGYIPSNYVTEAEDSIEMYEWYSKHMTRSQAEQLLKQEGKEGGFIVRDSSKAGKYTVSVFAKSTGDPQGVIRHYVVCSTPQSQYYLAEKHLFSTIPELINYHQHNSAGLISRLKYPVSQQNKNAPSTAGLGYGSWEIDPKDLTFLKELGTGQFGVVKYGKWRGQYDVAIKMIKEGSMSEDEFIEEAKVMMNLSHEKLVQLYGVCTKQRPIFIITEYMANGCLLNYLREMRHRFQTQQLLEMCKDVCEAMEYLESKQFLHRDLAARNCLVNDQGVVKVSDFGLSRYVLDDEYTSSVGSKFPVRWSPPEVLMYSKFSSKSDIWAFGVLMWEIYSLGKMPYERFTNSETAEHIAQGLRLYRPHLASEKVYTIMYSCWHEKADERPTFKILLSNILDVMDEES",
  "assay": "Z'-LYTE kinase assay, BTK enzyme activity inhibition (ThermoFisher SelectScreen)",
  "assay_type": "biochemical",
  "details": "60 minutes reaction at room temperature, compound 1,000 nM to 0.32 nM",
  "experimental": "To do this, the SelectScreen profiling service was requested to the ThermoFisher company to proceed the Z′-LYTE kinase assay. The simple test method can be summarized as follows.\nThe compounds prepared in Examples above were each dissolved in DMSO to prepare a 10 mM solution, which was then delivered to the ThermoFisher Scientific company. According to the protocol provided by the ThermoFisher Scientific company, the solution of each compound was diluted in 100% DMSO to a have a concentration of 1,000 nM to 0.32 nM (dilution factor of 1/5). Next, the BTK enzyme was diluted in a kinase buffer (50 mM HEPES (PH 7.5), 10 mM MgCl2, 1 mM EGTA, 0.01% BRIJ-35) to a concentration of up to 10 ng/assay. The test was performed in a low volume 384-well plate (low volume NBS, black 384-well plate). First, 100 nL of the diluted compound solution was added to a sample, and then 2.4 μL of buffer, 5 μL of mixed solution of peptide substrate and kinase at twice (2×) the concentration listed in the protocol, and 2.5 μL of 140 μm ATP solution were added thereto, followed by stirring for 30 seconds. Then, it was allowed for a reaction at room temperature for 60 minutes. Afterwards, 5 μL of a color developing solution was added thereto and stirred for 30 seconds, and fluorescence of the peptide substrate was reacted for 60 minutes. After completion of the reaction, each fluorescence value (400 nm excitation filter, 445/520 nm emission filter) was measured by using a fluorescence plate reader.",
  "data": [
    {"smiles": "C=CC(=O)N(C)CC#Cc1c(N)ncnc1-c1cc(F)cc(NC(=O)c2ccc(C(C)C)cc2F)c1C", "note": "[Example 1]", "values": [
      {"measurement": "IC50", "value": 1.7, "unit": "nM"}
    ]},
    {"smiles": "C=CC(=O)N(C)CC#Cc1c(N)ncnc1-c1cc(F)cc(NC(=O)c2ccc(C3CC3)cc2F)c1C", "note": "[Example 2]", "values": [
      {"measurement": "IC50", "value": 1.5, "unit": "nM"}
    ]},
    {"smiles": "C=CC(=O)N(C)CC#Cc1c(N)ncnc1-c1cc(F)cc(N2CCc3cc(C4CC4)cc(F)c3C2=O)c1", "note": "[Example 3, N-(3-(4-amino-6-(3-(6-cyclopropyl-8-fluoro-1-oxo-3,4-dihydroisoquinolin-2(1H)-yl)-5-fluorophenyl)pyrimidin-5-yl)prop-2-yn-1-yl)-N-methylacrylamide]", "values": [
      {"measurement": "IC50", "value": 3.8, "unit": "nM"}
    ]},
    {"smiles": "C=CC(=O)N(C)CC#Cc1c(N)ncnc1-c1cc(F)cc(N2CCc3cc(C4CC4)cc(F)c3C2=O)c1C", "note": "[Example 4, N-(3-(4-amino-6-(3-(6-cyclopropyl-8-fluoro-1-oxo-3,4-dihydroisoquinolin-2(1H)-yl)-5-fluoro-2-methylphenyl)pyrimidin-5-yl)prop-2-yn-1-yl)-N-methylacrylamide]", "values": [
      {"measurement": "IC50", "value": 5.3, "unit": "nM"}
    ]},
    {"smiles": "C=CC(=O)N(C)CC#Cc1c(N)ncnc1-c1cc(F)cc(-n2ccc3cc(C4CC4)cc(F)c3c2=O)c1", "note": "[Example 5, N-(3-(4-amino-6-(3-(6-cyclo-8-fluoro-1-oxoisoquinolin-2(1H)-yl)-5-fluorophenyl)pyrimidin-5-yl)prop-2-yn-1-yl)-N-methylacrylamide]", "values": [
      {"measurement": "IC50", "value": 6, "unit": "nM"}
    ]},
    {"smiles": "C=CC(=O)N(C)CC#Cc1c(N)ncnc1-c1cc(F)cc(-n2ccc3cc(C4CC4)cc(F)c3c2=O)c1C", "note": "[Example 6, N-(3-(4-amino-6-(3-(6-cyclopropyl-8-fluoro-1-oxoisoquinolin-2(1H)-yl)-5-fluoro-2-methylphenyl)pyrimidin-5-yl)prop-2-yn-1-yl)-N-methylacrylamide]", "values": [
      {"measurement": "IC50", "value": 3, "unit": "nM"}
    ]},
    {"smiles": "C=CC(=O)N(C)CC#Cc1c(N)ncnc1-c1cc(F)cc(-n2ccc3cc(C4CC4)cc(F)c3c2=O)c1F", "note": "[Example 7, N-(3-(4-amino-6-(3-(6-cyclopropyl-8-fluoro-1-oxoisoquinolin-2(1H)-yl)-2,5-difluorophenyl)pyrimidin-5-yl)prop-2-yn-1-yl)-N-methylacrylamide]", "values": [
      {"measurement": "IC50", "value": 20, "unit": "nM"}
    ]},
    {"smiles": "C=CC(=O)N(C)CC#Cc1c(N)ncnc1-c1cc(C)cc(-n2ccc3cc(C4CC4)cc(F)c3c2=O)c1C", "note": "[Example 8, N-(3-(4-amino-6-(3-(6-cyclopropyl-8-fluoro-1-oxoisoquinolin-2(1H)-yl)-2,5-dimethylphenyl)pyrimidin-5-yl)prop-2-yn-1-yl)-N-methylacrylamide]", "values": [
      {"measurement": "IC50", "value": 3.4, "unit": "nM"}
    ]},
    {"smiles": "C=CC(=O)NCC#Cc1c(N)ncnc1-c1cc(F)cc(-n2ccc3cc(C4CC4)cc(F)c3c2=O)c1C", "note": "[Example 9, N-(3-(4-amino-6-(3-(6-cyclopropyl-8-fluoro-1-oxoisoquinolin-2(1H)-yl)-5-fluoro-2-methylphenyl)pyrimidin-5-yl)prop-2-yn-1-yl)acrylamide]", "values": [
      {"measurement": "IC50", "value": 34, "unit": "nM"}
    ]},
    {"smiles": "C=CC(=O)N(C)CC#Cc1c(N)ncnc1-c1cc(F)cc(-n2ncc3cc(C(C)(C)C)cc(F)c3c2=O)c1", "note": "[Example 10, N-(3-(4-amino-6-(3-(6-(tert-butyl)-8-fluoro-1-oxophthalazin-2-(1H)-yl)-5-fluorophenyl)pyrimidin-5-yl)prop-2-yn-1-yl)-N-methylacrylamide]", "values": [
      {"measurement": "IC50", "value": 2.3, "unit": "nM"}
    ]},
    {"smiles": "C=CC(=O)N(C)CC#Cc1c(N)ncnc1-c1cc(F)cc(-n2ncc3cc(C4CC4)ccc3c2=O)c1C", "note": "[Example 11, N-(3-(4-amino-6-(3-(6-cyclopropyl-1-oxophthalazin-2(1H)-yl)-5-fluoro-2-methylphenyl)pyrimidin-5-yl)prop-2-yn-1-yl)-N-methylacrylamide]", "values": [
      {"measurement": "IC50", "value": 10, "unit": "nM"}
    ]},
    {"smiles": "C=CC(=O)N(C)CC#Cc1c(N)ncnc1-c1cc(F)cc(-n2ncc3cc(C4CC4)cc(F)c3c2=O)c1C", "note": "[Example 12, N-(3-(4-amino-6-(3-(6-cyclopropyl-8-fluoro-1-oxophthalazin-2(1H)-yl)-5-fluoro-2-methylphenyl)pyrimidin-6-yl)prop-2-yn-1-yl)-N-methylacrylamide]", "values": [
      {"measurement": "IC50", "value": 4.9, "unit": "nM"}
    ]},
    {"smiles": "C=CC(=O)N(C)CC#Cc1c(N)ncnc1-c1cc(F)cc(-n2ncc3cc(C(C)(C)C)cc(F)c3c2=O)c1C", "note": "[Example 13]", "values": [
      {"measurement": "IC50", "value": 44, "unit": "nM"}
    ]},
    {"smiles": "C=CC(=O)N(C)CC#Cc1c(N)ncnc1-c1cc(F)cc(-n2ncc3cc(C(C)(C)C)ccc3c2=O)c1", "note": "[Example 14]", "values": [
      {"measurement": "IC50", "value": 24, "unit": "nM"}
    ]},
    {"smiles": "C=CC(=O)N(C)CC#Cc1c(N)ncnc1-c1cc(F)cc(-n2cnc3cc(C4CC4)cc(F)c3c2=O)c1", "note": "[Example 15, N-(3-(4-amino-6-(3-(7-cyclopropyl-5-fluoro-4-oxoquinazolin-3(4H)-yl)-5-fluorophenyl)pyrimidin-5-yl)prop-2-yn-1-yl)-N-methylacrylamide]", "values": [
      {"measurement": "IC50", "value": 34, "unit": "nM"}
    ]},
    {"smiles": "C=CC(=O)N1CCC[C@@H]1C#Cc1c(N)ncnc1-c1cc(F)cc(-n2ccc3cc(C4CC4)cc(F)c3c2=O)c1C", "note": "[Example 16, (R)-2-(3-(5-((1-acryloylpyrrolidin-2-yl)ethynyl)-6-aminopyrimidin-4-yl)-5-fluoro-2-methylphenyl)-6-cyclopropyl-8-fluoroisoquinolin-1-(2H)-one]", "values": [
      {"measurement": "IC50", "value": 29, "unit": "nM"}
    ]},
    {"smiles": "C=CC(=O)N1CCC[C@H]1C#Cc1c(N)ncnc1-c1cc(F)cc(-n2ccc3cc(C4CC4)cc(F)c3c2=O)c1C", "note": "[Example 17, (S)-2-(3-(5-((1-acryloylpyrrolidin-2-yl)ethynyl)-6-aminopyrimidin-4-yl)-6-fluoro-2-methylphenyl)-6-cyclopropyl-8-fluoroisoquinolin-1-(2H)-one]", "values": [
      {"measurement": "IC50", "value": 4.1, "unit": "nM"}
    ]},
    {"smiles": "C=CC(=O)N1CCC[C@H]1C#Cc1c(N)ncnc1-c1cc(F)cc(-n2ccc3cc(C(C)C)cc(F)c3c2=O)c1C", "note": "[Example 18, (S)-2-(3-(5-((1-acryloylpyrrolidin-2-yl)ethynyl)-6-aminopyrimidin-4-yl)-6-fluoro-2-methylphenyl)-8-fluoro-6-isoquinolin-1-(2H)-one]", "values": [
      {"measurement": "IC50", "value": 9.7, "unit": "nM"}
    ]},
    {"smiles": "C=C(F)C(=O)N1CCC[C@H]1C#Cc1c(N)ncnc1-c1cc(F)cc(-n2ccc3cc(C4CC4)cc(F)c3c2=O)c1C", "note": "[Example 19, (S)-2-(3-(6-amino-5-((1-(2-fluoroacryloyl)pyrrolidin-2-yl)ethynyl)pyrimidin-4-yl)-5-fluoro-2-methylphenyl)-6-cyclopropyl-8-fluoroisoquinolin-1(2H)-one]", "values": [
      {"measurement": "IC50", "value": 201, "unit": "nM"}
    ]},
    {"smiles": "C=C(Cl)C(=O)N1CCC[C@H]1C#Cc1c(N)ncnc1-c1cc(F)cc(-n2ccc3cc(C4CC4)cc(F)c3c2=O)c1C", "note": "[Example 20, (S)-2-(3-(6-amino-5-((1-(2-chloroacryloyl)pyrrolidin-2-yl)ethynyl)pyrimidin-4-yl)-5-fluoro-2-methylphenyl)-6-cyclopropyl-8-fluoroisoquinolin-1(2H)-one]", "values": [
      {"measurement": "IC50", "value": 16, "unit": "nM"}
    ]},
    {"smiles": "C=CC(=O)N1CCCCC1C#Cc1c(N)ncnc1-c1cc(F)cc(-n2ccc3cc(C4CC4)cc(F)c3c2=O)c1C", "note": "(stereo not shown) [Example 22, 2-(3-(5-((1-acryloylpiperidin-2-yl)ethynyl)-6-aminopyrimidin-4-yl)-5-fluoro-2-methylphenyl)-6-cyclopropyl-8-isoquinolin-1(2H)-one]", "values": [
      {"measurement": "IC50", "value": 5.7, "unit": "nM"}
    ]},
    {"smiles": "C=CC(=O)N1CCCC[C@H]1C#Cc1c(N)ncnc1-c1cc(F)cc(-n2ccc3cc(C4CC4)cc(F)c3c2=O)c1C", "note": "[Example 23]", "values": [
      {"measurement": "IC50", "value": 8.7, "unit": "nM"}
    ]}
  ]
}
